Source: US10342781B2, “Diazole amides” (CHEMOCENTRYX, INC., priority 2012, dated 2019)

Target: T1, CCR1 (Homo sapiens, UniProt P32246)
T1 construct: host or cells: THP-1 myelomonocytic leukemia cells (or freshly isolated monocytes)
T1 sequence (P32246 1-355): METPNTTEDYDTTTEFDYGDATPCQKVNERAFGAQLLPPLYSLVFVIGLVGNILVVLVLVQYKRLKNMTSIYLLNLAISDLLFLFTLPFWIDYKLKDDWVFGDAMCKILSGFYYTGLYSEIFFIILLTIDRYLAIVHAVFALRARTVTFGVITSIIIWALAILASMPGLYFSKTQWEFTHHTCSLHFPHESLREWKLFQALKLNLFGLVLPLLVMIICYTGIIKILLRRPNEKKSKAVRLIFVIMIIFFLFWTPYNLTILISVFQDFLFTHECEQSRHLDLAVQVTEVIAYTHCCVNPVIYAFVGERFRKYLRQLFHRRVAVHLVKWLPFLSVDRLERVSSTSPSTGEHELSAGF
Assay: Chemotaxis (migration) assay
Assay type: cell-based
Settings: THP-1 or monocyte cells, CCR1 chemokine ligand (MIP-1α, CCL15/Leukotactin), 1-2 hours at 37° C.
Procedure: THP-1 cells were obtained from ATCC (TIB-202) and cultured as a suspension in RPMI-1640 medium supplemented with 2 mM L-glutamine, 1.5 g/L sodium bicarbonate, 4.5 g/L glucose, 10 mM HEPES, 1 mM sodium pyruvate, 0.05% 2-mercaptoethanol and 10% FBS. Cells were grown under 5% CO2/95% air, 100% humidity at 37° C. and subcultured twice weekly at 1:5 (cells were cultured at a density range of 2×10^5 to 2×10^6 cells/mL) and harvested at 1×10^6 cells/mL. THP-1 cells express CCR1 and can be used in CCR1 binding and functional assays.
Chemotaxis assays were performed using 5 μm pore polycarbonate, polyvinylpyrrolidone-coated filters in 96-well chemotaxis chambers (Neuroprobe; Gaithersburg, Md.) using chemotaxis buffer (Hank's balanced salt solution (HBSS) and 1% FBS). CCR1 chemokine ligands (i.e., MIP-1α, CCL15/Leukotactin; R&D Systems; Minneapolis, Minn.) are use to evaluate compound mediated inhibition of CCR1 mediated migration. Other chemokines (i.e., SDF-1α; R&D Systems; Minneapolis, Minn.) are used as specificity controls. The lower chamber was loaded with 29 μl of chemokine (i.e., 0.1 nM CCL15/Leukotactin) and varying amounts of compound, the top chamber contained 100,000 THP-1 or monocyte cells in 20 μl. The chambers were incubated 1-2 hours at 37° C., and the number of cells in the lower chamber quantified either by direct cell counts in five high powered fields per well or by the CyQuant assay (Molecular Probes), a fluorescent dye method that measures nucleic acid content and microscopic observation.
One of the primary functions of chemokines is their ability to mediate the migration of chemokine receptor-expressing cells, such as white blood cells. To confirm that a compound of interest inhibited not only CCR1 specific binding and signaling (at least as determined by calcium mobilization assays), but also CCR1 mediated migration, a chemotaxis assay was employed. THP-1 myelomonocytic leukemia cells, which resemble monocytes, as wells as freshly isolated monocytes, were used as targets for chemoattraction by CCR1 chemokine ligands (i.e., MIP-1α, CCL15/leukotactin). Cells were placed in the top compartment of a microwell migration chamber, while MIP-1α (or other potent CCR1 chemokine ligand) and increasing concentrations of a compound of interest was loaded in the lower chamber. […] To ascertain a compound of interest's affinity for CCR1 as well as to confirm its ability to inhibit CCR1 mediated cell migration, inhibitory activity was titered over a 1×10^−10 to 1×10^−4 M range of compound concentrations in this chemotaxis assay. In this assay, the amount of compound was varied; while cell number and chemokine agonist concentrations were held constant. After the chemotaxis chambers were incubated 1-2 hours at 37° C., the responding cells in the lower chamber were quantified by labeling with the CyQuant assay (Molecular Probes), a fluorescent dye method that measures nucleic acid content, and by measuring with a Spectrafluor Plus (Tecan). The computer program Prism from GraphPad, Inc. (San Diego, Ca) was used to calculate IC50 values. IC50 values are those compound concentrations required to inhibit the number of cells responding to a CCR1 agonist by 50%.

| Compound | IC50 [nM] |
| --- | --- |
| Cc1nc(C(F)(F)F)cn1C(C)C(=O)Nc1nnn(-c2ccc(Cl)cc2)c1C(C)C (stereo not drawn) [1.001] | ≤ 100 |
| Cc1nc(C(F)(F)F)cn1C(C)C(=O)Nc1cnn(-c2ccc(Cl)cc2)c1C1CC1 (stereo not drawn) [1.002] | 100 to 10000 |
| Cc1nc(C(F)(F)F)cn1C(C)C(=O)Nc1cnn(-c2ccc(F)cc2)c1N(C)C (stereo not drawn) [1.003] | 100 to 10000 |
| Cc1nc(C(F)(F)F)cn1C(C)C(=O)Nc1cnn(-c2ccc(F)cc2)c1Cl (stereo not drawn) [1.004] | 100 to 10000 |
| Cc1nc(C(F)(F)F)cn1C(C)C(=O)Nc1cnn(-c2ccc(F)cc2)c1OC(C)C (stereo not drawn) [1.005] | 100 to 10000 |
| CCOc1c(NC(=O)C(C)n2cc(C(F)(F)F)nc2C)cnn1-c1ccc(F)cc1 (stereo not drawn) [1.006] | 100 to 10000 |
| Cc1c(Cl)c(C(F)(F)F)nn1C(C)(C)C(=O)Nc1cnn(-c2ccc(F)cc2)c1C(C)C [1.007] | 100 to 10000 |
| Cc1nc(C(F)(F)F)nn1C(C)C(=O)Nc1cnn(-c2ccc(F)cc2)c1C(C)C (stereo not drawn) [1.008] | 100 to 10000 |
| Cc1nc(C(F)(F)F)cn1C(C)C(=O)Nc1cnn(-c2ccc(F)cc2)c1C(C)C (stereo not drawn) [1.009] | ≤ 100 |
| Cc1nc(C(F)(F)F)nn1C(C)C(=O)Nc1cnn(-c2ccc(Cl)cc2)c1C(C)C (stereo not drawn) [1.010] | ≤ 100 |
| Cc1nc(C(F)(F)F)cn1C(C)C(=O)Nc1cnn(-c2ccc(Cl)cc2)c1C(C)C (stereo not drawn) [1.011] | ≤ 100 |
| Cc1nc(C(F)(F)F)c2n1C(C(=O)Nc1cnn(-c3ccc(Cl)cc3)c1C(C)C)CCC2 (stereo not drawn) [1.012] | ≤ 100 |
| Cc1nc(C(F)(F)F)cn1C(C)C(=O)Nc1cnn(-c2ccc(F)cc2)c1C(C)(C)C (stereo not drawn) [1.013] | 100 to 10000 |
| Cc1c(Cl)c(C(F)(F)F)nn1C(CCCCO)C(=O)Nc1cnn(-c2ccc(F)cc2)c1C(C)C (stereo not drawn) [1.014] | 100 to 10000 |
| Cc1nc(C(F)(F)F)cn1C(C)C(=O)Nc1cnn(-c2ccc(Cl)cc2)c1C(C)C (stereo not drawn) [1.015] | ≤ 100 |
| Cc1c(Cl)c(C(F)(F)F)nn1C(C)C(=O)Nc1cnn(-c2ccc(F)cc2)c1C(C)C (stereo not drawn) [1.016] | ≤ 100 |
| CCC(C(=O)Nc1cnn(-c2ccc(F)cc2)c1C(C)C)n1nc(C(F)(F)F)c(Cl)c1C (stereo not drawn) [1.017] | ≤ 100 |
| Cc1nc(C(F)(F)F)cn1C(C)C(=O)Nc1cnn(-c2ccc(F)cc2)c1C(C)C (stereo not drawn) [1.018] | ≤ 100 |
| CCC(C(=O)Nc1cnn(-c2ccc(F)cc2)c1C(C)C)n1cc(C(F)(F)F)nc1C (stereo not drawn) [1.019] | ≤ 100 |
| Cc1c(NC(=O)Cn2nc(C(F)(F)F)c(Cl)c2C)ncn1-c1ccc(F)cc1 [1.020] | 100 to 10000 |
| Cc1c(Cl)c(C(F)(F)F)nn1CC(=O)Nc1cnn(-c2ccc(F)cc2)c1-c1ccccc1 [1.021] | 100 to 10000 |
| Cc1c(Cl)c(C(F)(F)F)nn1CC(=O)Nc1cnn(-c2ccc(F)cc2)c1C(C)C [1.022] | ≤ 100 |
| CCc1c(NC(=O)Cn2nc(C(F)(F)F)c(Cl)c2C)cnn1-c1ccc(F)cc1 [1.023] | 100 to 10000 |
| Cc1nc(C(F)(F)F)cn1C(C)C(=O)Nc1cnn(-c2ccc(F)cc2)c1C (stereo not drawn) [1.024] | 100 to 10000 |
| Cc1c(Cl)c(C(F)(F)F)nn1CC(=O)Nc1cnn(-c2ccc(F)cc2)c1C [1.025] | 100 to 10000 |
| Cc1c(Cl)c(C(F)(F)F)nn1CC(=O)N(C)c1cnn(-c2ccc(F)cc2)c1 [1.026] | 100 to 10000 |
| Cc1c(Cl)c(C(F)(F)F)nn1CC(=O)Nc1cnn(-c2ccc(F)cc2)c1 [1.027] | 100 to 10000 |
| Cc1nc(C(F)(F)F)cn1C(C)C(=O)Nc1cnc(-c2ccc(Cl)cc2)n1C(C)C (stereo not drawn) [1.028] | 100 to 10000 |
| Cc1nc(C(F)(F)F)cn1[C@@H](C)C(=O)Nc1cnn(-c2ccc(Cl)cc2)c1C1CCC1 [1.029] | ≤ 100 |

Tested on: inflammatory cells recruited to the inflamed synovial fluid of the knee joints
Assay: Rabbit model of destructive joint inflammation (rabbit LPS study)
Assay type: in vivo, Female New Zealand rabbits
Settings: intra-articular LPS (10 ng), dosed orally in 1% methocel 2 hours before and 4 hours after LPS, knees lavaged sixteen hours after LPS
Procedure: A rabbit LPS study was conducted essentially as described in Podolin, et al. J. Immunol. 169(11):6435-6444 (2002). Female New Zealand rabbits (approximately 2 kilograms) were treated intra-articularly in both knees with LPS (10 ng). The compound of interest, for example 1.016, (formulated in 1% methocel) or vehicle (1% methocel) was dosed orally at a 5 ml/kg dose volume at two times (2 hours before the intra-articular LPS injection and 4 hours after the intra-articular LPS injection). Sixteen hours after the LPS injection, knees were lavaged and cells counts were performed. Beneficial effects of treatment were determined by reduction in the number of inflammatory cells recruited to the inflamed synovial fluid of the knee joints.

| Compound | reduction in the number of inflammatory cells recruited to the inflamed synovial fluid of the knee joints |
| --- | --- |
| Cc1c(Cl)c(C(F)(F)F)nn1C(C)C(=O)Nc1cnn(-c2ccc(F)cc2)c1C(C)C (stereo not drawn) [1.016] | significant reduction in recruited inflammatory cells |
